Reference: ChEMBL document CHEMBL3045663, “Synthesis and Activity of Novel Acaricidal/Insecticidal 2, 4-Diphenyl-1, 3-oxazolines” (J Pestic Sci, 2002)
≈ marks a conversion by molar mass, not a printed value.

Columns and labels:
Type in all cases: functional
[1] = tested on: Tetranychus urticae; assay: Acaricidal activity against Tetranychus urticae (two-spotted spider mite) in compound treated kidney bean leaf assessed as mortality of egg at 1000 ppm at 24 degC measured after 1 week; conditions: 168 h
[2] = tested on: Tetranychus urticae; assay: Acaricidal activity against Tetranychus urticae (two-spotted spider mite) in compound treated kidney bean leaf assessed as larvicidal activity
[3] = tested on: Myzus persicae; assay: Insecticidal activity against Myzus persicae (green peach aphid) in compound treated radish leaf assessed as mortality at 500 ppm
[4] = tested on: Nephotettix cincticeps; assay: Insecticidal activity against Nephotettix cincticeps (green rice leafhopper) in compound treated rice seedlings assessed as mortality at 500 ppm
[5] = tested on: Plutella xylostella; assay: Insecticidal activity against Plutella xylostella (diamondback moth) in compound treated radish leaf assessed as mortality at 500 ppm

Structure (SMILES) | mortality at 1000 ppm [1] | LC50 [2] | mortality at 500 ppm [3] | mortality at 500 ppm [4] | mortality at 500 ppm [5]
CSc1ccccc1C1=NC(c2ccccc2)CO1 (stereo unspecified) | 0% | 100 µg/mL (≈ 371 µM) | 0% | 0% | 35%
COc1ccc(C2=NC(c3ccccc3)CO2)cc1 (stereo unspecified) | 0% | 100 µg/mL (≈ 395 µM) | 0% | 10% | 0%
Ic1ccccc1C1=NC(c2ccccc2)CO1 (stereo unspecified) | 10% | 1 µg/mL (≈ 2.86 µM) | 0% | 0% | 35%
Fc1cccc(F)c1-c1ncc(-c2ccccc2)o1 | 0% | 100 µg/mL (≈ 389 µM) | 0% | 0% | 0%
Fc1cccc(F)c1C1=NCC(c2ccccc2)O1 (stereo unspecified) | 0% | 1 µg/mL (≈ 3.86 µM) | 85% | 10% | 35%
Fc1ccccc1C1=NC(c2ccccc2)CO1 (stereo unspecified) | 10% | 10 µg/mL (≈ 41.4 µM) | 0% | 10% | 35%
Cc1ccc(C2=NC(c3ccccc3)CO2)cc1 (stereo unspecified) | 0% | > 1000 µg/mL | 0% | 0% | 0%
Clc1cccc(C2=NC(c3ccccc3)CO2)c1Cl (stereo unspecified) | 0% | 10 µg/mL (≈ 34.2 µM) | 0% | 0% | 0%
Cc1cccc(C2=NC(c3ccccc3)CO2)c1 (stereo unspecified) | 0% | > 1000 µg/mL | 0% | 10% | 0%
CCSc1ccccc1C1=NC(c2ccccc2)CO1 (stereo unspecified) | 10% | 100 µg/mL (≈ 353 µM) | 0% | 10% | 10%
CCOc1ccccc1C1=NC(c2ccccc2)CO1 (stereo unspecified) | 0% | > 1000 µg/mL | 0% | 0% | 0%
Cc1ccccc1C1=NC(c2ccccc2)CO1 (stereo unspecified) | 60% | 100 µg/mL (≈ 421 µM) | 60% | 0% | 60%
Clc1cccc(C2=NC(c3ccccc3)CO2)c1 (stereo unspecified) | 10% | 100 µg/mL (≈ 388 µM) | 0% | 0% | 60%
Clc1cccc(Cl)c1C1=NC(c2ccccc2)CO1 (stereo unspecified) | 0% | 1 µg/mL (≈ 3.42 µM) | 10% | 0% | 10%
c1ccc(C2=NC(c3ccccc3)CO2)cc1 (stereo unspecified) | 0% | 10 µg/mL (≈ 44.8 µM) | 0% | 0% | 60%
Brc1ccccc1C1=NC(c2ccccc2)CO1 (stereo unspecified) | 10% | 0.1 µg/mL (≈ 0.331 µM) | 0% | 0% | 60%
FC(F)(F)c1ccccc1C1=NC(c2ccccc2)CO1 (stereo unspecified) | 0% | 100 µg/mL (≈ 343 µM) | 10% | 0% | 35%
Fc1cccc(Cl)c1C1=NC(c2ccccc2)CO1 (stereo unspecified) | 0% | 0.01 µg/mL (≈ 0.0363 µM) | 10% | 35% | 0%
Fc1cccc(F)c1C1=NCC(c2ccccc2)S1 (stereo unspecified) | 0% | 100 µg/mL (≈ 363 µM) | 0% | 0% | 0%
CC1(c2ccccc2)COC(c2c(F)cccc2F)=N1 (stereo unspecified) | 0% | 100 µg/mL (≈ 366 µM) | 0% | 0% | 0%

Structure (SMILES) | mortality at 1000 ppm [1] | LC50 [2] | mortality at 500 ppm [3] | mortality at 500 ppm [4] | mortality at 500 ppm [5]
Clc1ccc(C2=NC(c3ccccc3)CO2)cc1 (stereo unspecified) | 0% | 100 µg/mL (≈ 388 µM) | 0% | 0% | 60%
Fc1cccc(F)c1-c1nc(-c2ccccc2)co1 | 0% | 100 µg/mL (≈ 389 µM) | 0% | 10% | 0%
Fc1cccc(F)c1C1=NC(c2ccccc2)CO1 (stereo unspecified) | 0% | 1 µg/mL (≈ 3.86 µM) | 100% | 35% | 0%
COc1cccc(C2=NC(c3ccccc3)CO2)c1 (stereo unspecified) | 0% | > 1000 µg/mL | 0% | 0% | 0%
O=[N+]([O-])c1ccccc1C1=NC(c2ccccc2)CO1 (stereo unspecified) | 10% | 100 µg/mL (≈ 373 µM) | 0% | 0% | 0%
Fc1cccc(F)c1C1=NC(c2ccc(C(F)(F)F)cc2)CO1 (stereo unspecified) |  | 0.01 µg/mL (≈ 0.0306 µM) | 100% | 60% | 85%
CCCCc1ccc(C2COC(c3c(F)cccc3F)=N2)cc1 (stereo unspecified) |  | < 0.001 µg/mL | 100% | 10% | 0%
CC(C)Oc1ccc(C2COC(c3c(F)cccc3F)=N2)cc1 (stereo unspecified) |  | 0.001 µg/mL (≈ 0.00315 µM) | 100% | 0% | 0%
Cc1cccc(C2COC(c3c(F)cccc3F)=N2)c1 (stereo unspecified) |  | 10 µg/mL (≈ 36.6 µM) | 0% | 0% | 0%
Cc1ccc(C2COC(c3c(F)cccc3F)=N2)c(C)c1 (stereo unspecified) |  | 10 µg/mL (≈ 34.8 µM) | 100% | 100% | 35%
CCCCOc1ccc(C2COC(c3c(F)cccc3F)=N2)cc1 (stereo unspecified) |  | < 0.001 µg/mL | 100% | 0% | 0%
CCCCCCc1ccc(C2COC(c3c(F)cccc3F)=N2)c(F)c1 (stereo unspecified) |  | < 0.001 µg/mL | 100% | 60% | 100%
Cc1ccc(C2COC(c3c(F)cccc3F)=N2)cc1C (stereo unspecified) |  | 1 µg/mL (≈ 3.48 µM) | 100% | 85% | 0%
CCCCCCCCCc1ccc(C2COC(c3c(F)cccc3F)=N2)c(OC)c1 (stereo unspecified) |  | 0.001 µg/mL (≈ 0.00241 µM) | 100% | 10% | 100%
CCOc1ccccc1C1COC(c2c(F)cccc2F)=N1 (stereo unspecified) |  | 10 µg/mL (≈ 33 µM) | 0% | 100% | 10%
Fc1cccc(F)c1C1=NC(c2ccc(OCC(F)(F)F)cc2)CO1 (stereo unspecified) |  | < 0.001 µg/mL | 100% | 100% | 35%
CCCCCCCCCCCCc1ccc(C2COC(c3c(F)cccc3F)=N2)cc1 (stereo unspecified) |  | < 0.001 µg/mL | 85% | 0% | 100%
COc1ccccc1C1COC(c2c(F)cccc2F)=N1 (stereo unspecified) |  | 10 µg/mL (≈ 34.6 µM) | 0% | 10% | 0%
Fc1ccc(C2COC(c3c(F)cccc3F)=N2)cc1 (stereo unspecified) |  | 0.1 µg/mL (≈ 0.361 µM) | 85% | 10% | 85%
